Key:
[1] = test system: CEP55, MKRN2, EDF1, CHMP2B, DTX3L; assay: Immunoblotting of commonly depleted USP9X substrates; format: cell-based, human; settings: MiaPaca2 and SK-MEL-2, 24 h; rescued with proteasomal inhibition (MG132)
Method: The next day, cells were lysed in DISC lysis buffer (20 mM TRIS/HCl [pH 7.5], 150 mM NaCl, 2 mM EDTA [pH 8.0], 1% [v/v] Triton X 100, 10% [v/v] glycerol) supplemented with 2% (w/v) SDS and PhosSTOP tablets (Roche). To shred DNA, DISC lysates were run through polypropylene columns (Pierce). […] Next, membranes were washed twice in TBS-T and incubated with primary antibodies at 4 °C o/n. Primary antibodies were diluted in antibody dilution buffer (5% [w/v] BSA [pH 5.2, Sigma-Aldrich] in TBS-T with 0.04% [v/v] sodium azide) as per the manufacturer’s instructions. […] Next, membranes were washed four times for 5 min each in TBS-T. Membranes were developed in ECL (Bio-Rad) and imaged using the ChemiDoc imaging system (Bio-Rad). Images were processed using Image Lab software.

HMEC-1 cells = assay: Lattice light sheet imaging of mitosis, HMEC-1; format: cell-based, human; settings: 15 µM, imaged 24-48 h
Method: (§1) MDA-MB-231, MiaPaca2, HMEC-1, SK-MEL-2 and UO-31 cells were seeded at 2–15 × 10^4 cells/mL in 8-well glass µ-slides (ibidi). […] SPY650-Tubulin, SPY555-DNA (both Spirochrome, Inc.), and Annexin V FITC (Sigma-Aldrich) were added at a final concentration of 1 in 1000. Cells were left to grow for 24 h before time-lapse live-cell data were acquired using a Lattice Light Sheet 7 (Zeiss). […] Aberration correction was set to a value of 170 to minimise aberrations as determined by imaging the Point Spread Function using 100 nm fluorescent microspheres. Data were collected with a frame time of 10 ms and a z step of 0.4 μm with 834 frames per 290 μm by 290 μm. Individual regions were imaged in parallel across six wells of the eight-well chamber slide. Data are presented as Maximum Intensity Projections (MIPs), and these MIPs were used for all downstream analysis. Tile regions were imaged for 24 h with 10 min intervals at 37 °C, 5% CO2. Analysis was performed using the MIPs of the different full fields of cells over the 24–48 h time period. Mitosis and mitosis arrest were classified through a combination of automated image analysis and manual validation. […] Small erroneous detected spots were further removed through a manually adjusted size filter. […] The mean intensity of all tracks was then measured to determine mitosis and mitosis arrest. […]

UO-31 cells [2] = assay: Colony formation assay, UO-31; format: cell-based, human; settings: 10 µM, 7–12 days
Method: (§2) Cells were seeded at low density (200–4000 cells per well) after initial optimisation in a six-well tissue culture-treated plate (Falcon). Twenty-four hours post seeding, media was replaced, and the inhibitor was added. Cells were left to grow into colonies between 7 and 12 days, depending on the cell line. For analysis, the media was removed, and the cells were fixed with 10% (w/v) formalin for 10 min. Colonies were stained with crystal violet (Sigma-Aldrich, 0.5% [w/v] in 20% [v/v] MeOH) for 10 min and washed thrice with distilled H2O. Plates were imaged using the ChemiDoc imaging system (Bio-Rad) and analysed using the ImageJ ColonyArea plugin as described previously (Guzmán et al, [2014]).

ACHN cells = assay: IncuCyte live-cell imaging cell death, ACHN; format: cell-based, human; settings: 10 µM
Method: (§3) Cells were seeded at varying densities (1000–8000 cells per well) after initial optimisation in a 96-well tissue culture-treated plate (Thermo Fisher Scientific). Cells were incubated o/n, and the next day, inhibitors and controls diluted in cell media were added to the cells to a final volume of 200 μL per well. Cell death was measured using PI (Sigma-Aldrich). Cells were imaged with four images per well every 2 h for up to 96 h using the IncuCyte live-cell analysis system (S3, Sartorius). Cell proliferation data were analysed using Microsoft Excel by normalising confluence to control conditions. For cell killing readouts, the number of PI-positive cells was normalised to the control conditions for each timepoint.

[3] = test system: human dermal fibroblasts (HDF); assay: IncuCyte live-cell imaging cell death, HDF; format: cell-based; settings: 50 µM (Appendix Fig. S4E)
Method: as §3

[4] = Caco-2 cell permeability assessment; format: in vitro ADME; settings: human, 10 µM donor
Method: The apparent permeability coefficient was assessed using Caco-2 cell monolayers as described previously (Katneni et al, [2018]). […] Compound flux was assessed over a period of up to 120 min, with samples taken from the acceptor chamber at multiple time points. Samples from the donor chamber were taken at the beginning and at the end of the experiment. The mass balance at the end of the permeability experiment was calculated according to the following equation, where compound mass was calculated as the product of molar concentration and volume of donor or acceptor solution: Mass balance%=Massfinal donor+Massfinal acceptor/Massinitial donorx100
The apparent permeability coefficient (Papp) was determined based on the rate of compound appearance in acceptor buffer at steady state using the following equation: Papp(cm/s)=dQ/dtx1/cinitial donorx A dQ/dt : apparent steady-state transport rate (µmol/s)
A: surface area of Caco-2 monolayer (0.3 cm^2 in the test system used)
cinitial donor : concentration in the donor at the start of experiment (µmol/cm^3).

SK-MEL-2 cells = assay: NCI-60 cancer cell panel, SK-MEL-2; format: cell-based, human; settings: 10 µM, 3 days
Method: Inhibitors were tested at 10 µM. Data shown is the mean of two technical replicates and is shown relative to the no-drug control, and relative to the time zero number of cells.

USP24 = assay: DUBprofiler DUB selectivity panel, USP24; format: biochemical, human; settings: 50 µM compound
Method: UAF1 was added to the USP1, USP12 and USP46 reactions (with WDR20 additionally added to the USP12 and USP46 reactions), respectively. Ubiquitin was added to the USP5 reaction at KD. Proteasome-VS was added to the USP14 reaction at KD. OTUD5 p177S was used. The reaction for AMSH-LP was supplemented with Zinc.

MiaPaca2 cells = assay: Colony formation assay, MiaPaca2; format: cell-based, human; settings: 10 µM, 7–12 days
Method: as §2

UO-31 cells [5] = assay: Lattice light sheet imaging, UO-31; format: cell-based, human; settings: 15 µM, imaged 24-48 h
Method: as §1

SMILES: Cc1[nH]c2ccc(C(=O)N3CCN(S(=O)(=O)c4ccc5c(c4)OCCO5)CC3)cc2c1C [WEHI-092]
- MKRN2, CHMP2B and DTX3L protein levels (Western Blot) [1]: led to protein depletion
- cell division phenotype, HMEC-1 (HMEC-1 cells): proceeded through mitosis normally
- clonogenic potential, UO-31 (UO-31 cells [2]): sensitive
- response of ACHN cells (cell death) (ACHN cells): limited response
- toxicity to HDFs [3]: non-lethal and non-toxic
- Papp A→B at 10 µM ([4]; Caco-2, apical-to-basolateral): 42.6 ×10⁻⁶ cm/s
- Papp B→A at 10 µM ([4]; Caco-2, basolateral-to-apical): 70.4 ×10⁻⁶ cm/s
- cell growth, SK-MEL-2 (SK-MEL-2 cells): stalling cell growth completely
- inhibition of USP24, commercial panel (USP24): not inhibited
- clonogenic potential, MiaPaca2 (MiaPaca2 cells): strong decrease in proliferative capacity
- arrested mitosis phenotype, UO-31 (UO-31 cells [5]): did not display the arrested mitosis phenotype
